From PubChem BioAssay (NCI)
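Each compound was tested at five concentrations against cells in 96-well plates for 48 hours. The concentration for full growth arrest is given as TGI.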 Where a SMILES comes first, the peptide text is derived from it. [ ]: non-standard residue; d: D form. The star is where a group is joined. ξ: configuration not given here. ξD = NC(CC(=O)O)C(=O)O; Boc = CC(C)(C)OC(=O)*; Aib = CC(C)(N)C(=O)O; OBn = c1ccc(CO*)cc1

Assays:
Experiment in all cases: NCI anticancer screen, dose series, 48 h
LOX IMVI melanoma = system: LOX IMVI melanoma
SNB-19 CNS = system: SNB-19 CNS
COLO 205 colon = system: COLO 205 colon
BT-549 breast = system: BT-549 breast
M19-MEL melanoma = system: M19-MEL melanoma
LXFL 529 NSCLC = system: LXFL 529 NSCLC
DLD-1 colon = system: DLD-1 colon
DMS 114 small cell lung = system: DMS 114 small cell lung
HOP-18 NSCLC = system: HOP-18 NSCLC
XF 498 CNS = system: XF 498 CNS
SNB-78 CNS = system: SNB-78 CNS
DMS 273 small cell lung = system: DMS 273 small cell lung
KM20L2 colon = system: KM20L2 colon

SMILES	TGI (LOX IMVI melanoma) [µM]	TGI (SNB-19 CNS) [µM]	TGI (COLO 205 colon) [µM]	TGI (BT-549 breast) [µM]	TGI (M19-MEL melanoma) [µM]	TGI (LXFL 529 NSCLC) [µM]	TGI (DLD-1 colon) [µM]	TGI (DMS 114 small cell lung) [µM]	TGI (HOP-18 NSCLC) [µM]	TGI (XF 498 CNS) [µM]	TGI (SNB-78 CNS) [µM]	TGI (DMS 273 small cell lung) [µM]	TGI (KM20L2 colon) [µM]
N#CC(O)CCOCc1ccccc1 (stereo not drawn)	> 100	> 100	> 100	> 100	–	–	–	–	–	–	–	–	–
CC1(O)CC2C(CC1SC1CC3C(CC1(C)O)C3(C)C)C2(C)C (stereo not drawn)	–	–	> 100	–	63.4	> 100	> 100	> 100	> 100	> 100	> 100	> 100	–
Cn1cc(NC(=O)Nc2cc(C(=O)Nc3cc(C(=O)Nc4ccc5cc(S(=O)(=O)O)cc(S(=O)(=O)O)c5c4)n(C)c3)n(C)c2)cc1C(=O)Nc1cc(C(=O)Nc2ccc3cc(S(=O)(=O)O)cc(S(=O)(=O)O)c3c2)n(C)c1	> 100	> 100	> 100	> 100	–	–	–	–	–	–	–	–	–
O=C(NC(CS)C(=O)O)c1c2ccccc2nc2ccccc12 (stereo not drawn)	> 100	> 100	23.5	58.5	–	–	–	–	–	–	–	–	–
CN(C)CC1(C)CC/C(=C\c2ccc(Cl)cc2)C1=O (stereo not drawn)	82.1	65.2	31.7	–	> 100	40.8	85.7	56.2	> 100	> 100	> 100	50.7	35.7
CCCC(=O)OCC1OC(n2cc(F)c(=O)[nH]c2=O)C(F)C1O (stereo not drawn)	> 100	> 100	> 100	> 100	–	–	–	–	–	–	–	–	–
C/C(=N\O)c1ccc(OCc2cc(C(F)(F)F)cc(C(F)(F)F)c2)cc1	> 100	> 100	> 100	–	–	–	–	–	–	–	–	–	–
O=C(C[C@@H]1CCCN2CCCC[C@H]12)N1c2ccccc2Sc2ccc(Cl)cc21	27.3	31.1	26.1	28	–	–	–	–	–	–	–	–	–
N#Cc1ccc(C2ON=C(c3ccccc3)N2C23CC4CC(CC(C4)C2)C3)cc1 (stereo not drawn)	> 10	> 10	> 10	> 10	–	–	–	–	–	–	–	–	–
O=c1c2ccccc2n2c(-c3ccccc3O)nnc2n1-c1ccccc1	> 100	> 100	> 100	–	–	–	–	–	–	–	–	–	–
Cc1nc2ccc(Cl)cc2c2c1CCN2c1ccc(F)cc1	78.1	> 100	56.5	–	–	–	–	–	–	–	–	–	–
CC(C)CC(=O)CC(C)[C@]1(CCCOCc2ccccc2)C(=O)N2CCC3(C[C@@]24CCC[C@H]41)OCCO3 (stereo partly drawn)	–	> 10	> 10	–	–	–	–	–	–	–	–	–	–
N#C/C(c1nc2ccccc2[nH]1)=c1\s/c(=C/c2ccccc2)c(=O)n1-c1ccccc1	> 100	> 100	> 100	–	> 100	> 100	> 100	> 100	–	> 100	–	> 100	> 100
CCOC(=O)C1CCCc2sc(N)c(C#N)c21 (stereo not drawn)	–	> 100	> 100	> 100	–	–	–	–	–	–	–	–	–
CSc1nc(-c2ccccc2)[nH]c(=O)n1	–	> 100	> 100	> 100	–	–	–	–	–	–	–	–	–
Cn1c(=O)c2c(nc3n2CCCC(=O)N3CCCCl)n(C)c1=O	> 100	> 100	> 100	> 100	–	–	–	–	–	–	–	–	–
Oc1ccc(Br)cc1C=Nc1c(NC2CCCCC2)oc2ccc(Br)cc12	38.7	> 100	–	90.9	–	–	–	–	–	–	–	–	–

SMILES	TGI (LOX IMVI melanoma) [µM]	TGI (SNB-19 CNS) [µM]	TGI (COLO 205 colon) [µM]	TGI (BT-549 breast) [µM]	TGI (M19-MEL melanoma) [µM]	TGI (LXFL 529 NSCLC) [µM]	TGI (DLD-1 colon) [µM]	TGI (DMS 114 small cell lung) [µM]	TGI (HOP-18 NSCLC) [µM]	TGI (XF 498 CNS) [µM]	TGI (SNB-78 CNS) [µM]	TGI (DMS 273 small cell lung) [µM]	TGI (KM20L2 colon) [µM]
C/C(O)=C(/C=N/C(=S)Nc1ccccc1)C(=O)Nc1ccccc1C	> 100	> 100	> 100	–	–	–	–	–	–	–	–	–	–
CCOc1ccc(N(CC(=O)N2CC(=O)Nc3cc(C)c(C)cc32)C(C)=O)cc1	> 100	> 100	> 100	–	> 100	> 100	> 100	–	> 100	> 100	> 100	> 100	> 100
Cc1ccc(S(=O)(=O)C2=Cc3ccccc3C2(O)c2ccccc2)cc1 (stereo not drawn)	34.2	> 100	62.6	63.1	–	–	–	–	–	–	–	–	–
O=C(O)c1cnc2c(ccc3[nH]cccc32)c1=O	> 100	> 100	> 100	–	> 100	> 100	> 100	> 100	> 100	–	> 100	> 100	> 100
Cc1ccc(C(=O)NC2CCCCC2)cc1N=NN(C)C	> 100	> 100	–	–	> 100	> 100	> 100	–	–	–	> 100	> 100	> 100
NCCCN(CCCCN(CCCN)Cc1ccccc1)Cc1ccccc1	40.5	22.5	> 100	> 100	–	–	–	–	–	–	–	–	–
O=C1c2ccccc2CC12Cc1cc3c(cc1C2)CCC3	> 100	> 100	> 100	–	–	–	–	–	–	–	–	–	–
Cc1nc(C(N)=S)sc1C(=O)CC(=O)C(=O)Nc1ccc(Br)cc1	> 100	–	–	> 100	–	–	–	–	–	–	–	–	–
CC(=O)C1C(=O)C(=O)N(c2ccc([N+](=O)[O-])cc2[N+](=O)[O-])C1=O (stereo not drawn)	> 100	> 100	> 100	> 100	–	–	–	–	–	–	–	–	–
COc1cccc([C@@H]2C/C(=N\NC(=O)C(=O)N[C@@H](C)c3ccccc3)c3ccccc3N2)c1	> 100	> 100	> 100	–	–	–	–	–	–	–	–	–	–
COc1ccc2c(=O)c3ccoc3[nH]c2c1	> 100	> 100	> 100	> 100	–	–	–	–	–	–	–	–	–
CC(C)(C)OC(=O)NC(CC(=O)OCc1ccccc1)C(=O)NC(C)(C)C(N)=O (stereo not drawn) (Boc-[ξD](OBn)-[Aib]-NH2)	> 100	> 100	> 100	> 100	–	–	–	–	–	–	–	–	–
CC(NNC(=O)c1ccncc1)c1ccccc1 (stereo not drawn)	> 100	> 100	> 100	> 100	–	–	–	–	–	–	–	–	–
COC(=O)C1(Cc2ccccc2)Cc2ccccc2C1O (stereo not drawn)	> 100	–	> 100	> 100	–	–	–	–	–	–	–	–	–
CCOC(=O)c1cc(=O)c2cccc3c2n1CCS3	> 100	> 100	> 100	> 100	–	–	–	–	–	–	–	–	–
CN(C)c1ccc(N=C2N=C(Nc3ccccc3)C(=Nc3ccccc3)S2)cc1	> 100	> 100	> 100	–	–	–	–	–	–	–	–	–	–
O=C(N/C(=C\c1ccccc1)c1nc2ccccc2c(=O)o1)c1ccccc1	> 100	> 67.1	> 100	66.8	–	–	–	–	–	–	–	–	–
